Literature values in patent US20250049842A1, “THERAPEUTIC BLOOD-ACID-SHIFTING COMPOSITIONS AND METHODS” (priority 2023, published 2025).

Conditions: for pKa (pKa1, first or only dissociation): step (1) HA/A−; for pKa2 (second dissociation): step (2)

SMILES | pKa (pKa1, first or only dissociation) | pKa2 (second dissociation) | pKa (third dissociation) (step (3)) | pKa (fourth dissociation) (step (4))
[O-][Cl+2]([O-])O [Chloric Acid] | < 1 |  |  | 
Nc1nc2ncc(CNc3ccc(C(=O)N[C@@H](CCC(=O)O)C(=O)O)cc3)nc2c(=O)[nH]1 [Folic Acid, reference compound] | 1.63 | 2.71 | 4.68 | 7.53
O=[N+]([O-])O [Nitric Acid] | < 1 |  |  | 
O=NO [Nitrous] | 3.39 |  |  | 
[O-][Cl+3]([O-])([O-])O [Perchloric Acid] | < 1 |  |  | 
CC(=O)C(=O)O [Pyruvic Acid] | 2.49 |  |  | 
O=S(O)O [Sulfurous Acid] | 1.18 | 6.91 |  | 
